In patent US6818426B2 (Daicel Chemical Industries, Ltd., priority 2000, dated 2004):
Like-named read-outs stand apart in the source and are kept apart here.

Experiments:
[1] = test system: recombinant (R)-2,3-butanediol dehydrogenase, HB101 (pSE-PAD1) cell extract; assay: Substrate specificity of recombinant enzyme, oxidation reaction; type: biochemical, Pichia angusta; settings: for HB101 (pSE-PAD1) Relative activity: glycerol = 100%
Procedure: The quantification of polypeptide is carried out by a dye-binding method using a protein assay kit from BioRad.
(§1) The bacterial cells were collected by centrifugal separation and then suspended in 100 mM potassium phosphate buffer (pH 8.0) containing 0.02% 2-mercaptoethanol; the bacterial cells were lysed by the treatment with a closed sonic chamber device UCD-200TM (Cosmo Bio) for 4 minutes. The bacterial cell lysate was separated by centrifugation and the resulting supernatant was recovered as a bacterial cell extract.

[2] = test system: E. coli HB101 cell-free extract prepared in the absence of plasmid; type: biochemical
Procedure: as §1

[3] = molecular target: glycerol dehydrogenase produced by Escherichia coli (Escherichia coli W-1485) (Escherichia coli, UniProt P0A9S5); settings: J. Biol. Chem., 259:2124-2129, 1984; cited from earlier work
[4] = molecular target: (R)-2,3-butanediol dehydrogenase derived from Saccharomyces cerevisiae (Saccharomyces cerevisiae, UniProt P39714); settings: Arch. Microbiol., 154:267-273, 1990; cited from earlier work
[5] = test system: (R)-2,3-butanediol dehydrogenase; assay: Substrate specificity of purified (R)-2,3-butanediol dehydrogenase (dehydrogenation activity); type: biochemical, Pichia angusta; settings: substrate 500 mM; glycerol dehydrogenation activity with NAD+ as coenzyme taken as 100; ND: not detectable
Procedure: The enzyme obtained in Example 1 was allowed to react with various reagents of 500 mM, and then the dehydrogenation activity was assayed.

[6] = test system: (R)-2,3-butanediol dehydrogenase; assay: Behavior of (R)-2,3-butanediol dehydrogenase to reagents (residual glycerol dehydrogenase activity); type: biochemical, Pichia angusta; settings: for Inhibition of the enzyme by reagent (in words): treated at 30° C. for 10 minutes
Procedure: After treated with various reagents at 30° C. for 10 minutes, glycerol dehydrogenase activity was assayed.

[7] = test system: recombinant (R)-2,3-butanediol dehydrogenase, HB101 (pSE-PAD1) cell extract; assay: Substrate specificity of recombinant enzyme, reduction reaction; type: biochemical, Pichia angusta; settings: substrate 20 mM; for HB101 (pSE-PAD1) Relative activity: dihydroxyacetone = 100%
Procedure: as §1

[8] = test system: E. coli HB101 cell-free extract prepared in the absence of plasmid; assay: Host only cell-free extract, reduction reaction; type: biochemical; settings: substrate 20 mM
Procedure: as §1

[9] = test system: (R)-2,3-butanediol dehydrogenase; assay: Stereoselectivity of purified (R)-2,3-butanediol dehydrogenase; type: biochemical, Pichia angusta
Procedure: The enzyme obtained in Example 1 was allowed to react with each of the two isomers 1,2-propanediol and 2,3-butanediol (500 mM each).

[10] = test system: (R)-2,3-butanediol dehydrogenase derived from Pichia angusta; assay: Coenzyme usability; type: biochemical; settings: NADP+ in oxidation reaction, NADPH in reduction reaction
Description: However, regardless of the usability of NADP^+ and NADPH, an enzyme having the above-mentioned physicochemical properties (1) to (3), preferably (1) to (6), and even more preferably (1) to (9) is included in the present invention.

[11] = oxidation reaction, substrate 100 mM
[12] = reagent 1 mM, 30° C. for 10 minutes, glycerol dehydrogenase activity
[13] = oxidation reaction, substrate 50 mM

Chain of glycerol dehydrogenase produced by Escherichia coli (Escherichia coli W-1485) (P0A9S5 whole entry): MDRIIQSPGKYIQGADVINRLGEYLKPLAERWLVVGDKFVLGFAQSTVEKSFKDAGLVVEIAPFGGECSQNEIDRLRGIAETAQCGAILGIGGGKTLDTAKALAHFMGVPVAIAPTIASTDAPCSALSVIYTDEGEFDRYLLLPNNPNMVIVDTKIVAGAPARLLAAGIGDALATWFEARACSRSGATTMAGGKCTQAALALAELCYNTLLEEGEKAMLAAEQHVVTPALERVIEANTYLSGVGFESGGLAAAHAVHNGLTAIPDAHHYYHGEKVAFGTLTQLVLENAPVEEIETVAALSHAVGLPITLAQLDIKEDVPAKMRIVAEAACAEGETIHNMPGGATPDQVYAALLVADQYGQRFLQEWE
Chain of (R)-2,3-butanediol dehydrogenase derived from Saccharomyces cerevisiae (P39714 whole entry): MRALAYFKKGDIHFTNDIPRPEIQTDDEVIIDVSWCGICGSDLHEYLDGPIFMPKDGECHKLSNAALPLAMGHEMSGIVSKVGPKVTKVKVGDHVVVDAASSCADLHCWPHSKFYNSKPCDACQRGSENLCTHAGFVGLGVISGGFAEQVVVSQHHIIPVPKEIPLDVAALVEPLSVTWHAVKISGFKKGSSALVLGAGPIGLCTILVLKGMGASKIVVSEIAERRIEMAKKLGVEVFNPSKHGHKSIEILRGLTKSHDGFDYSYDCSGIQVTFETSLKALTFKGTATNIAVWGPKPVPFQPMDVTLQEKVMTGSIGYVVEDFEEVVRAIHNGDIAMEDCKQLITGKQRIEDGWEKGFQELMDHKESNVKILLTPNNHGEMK

## CCC(O)CO (racemic) [(RS)-1,2-butanediol]
[1]; substrate 100 mM
  HB101 (pSE-PAD1) activity: 0.200 U/mg
  HB101 (pSE-PAD1) Relative activity: 87.6%
[2]; [11]
  Host only activity: 0.002 U/mg

## CC(O)C(C)O (racemic) [DL-2,3-butanediol]
[3]
  Vmax: 21.2 U/mg protein
[4]
  dehydrogenase activity: about 20.3 U/mg protein

## CCC(O)CO (centres unmarked) [1,2-butanediol]
[5]
  Relative activity: 130%

## CC(O)CO (centres unmarked) [1,2-propanediol]
[5]
  Relative activity: 700%

## CC(O)CCO (centres unmarked) [1,3-butanediol]
[5]
  Relative activity: 58%

## c1ccc(-c2ccccn2)nc1 [2,2′-dipyridyl]
[6]; [12]
  Residual activity: 0%
[6]
  Inhibition of the enzyme by reagent (in words): markedly inhibited

## CC(O)C(C)O (centres unmarked) [2,3-butanediol]
[5]
  Relative activity: 3030%

## CC(=O)C(C)=O [2,3-butanedion]
[7]
  HB101 (pSE-PAD1) activity: 1.906 U/mg
  HB101 (pSE-PAD1) Relative activity: 195%
[8]
  Host only activity: 0.018 U/mg

## CCC(C)=O [2-butanone]
[7]
  HB101 (pSE-PAD1) activity: 0.008 U/mg
  HB101 (pSE-PAD1) Relative activity: 0.8%
[8]
  Host only activity: 0.002 U/mg

## CC(=O)C(C)O (centres unmarked) [3-hydroxy-2-butanone]
[1]; substrate 50 mM
  HB101 (pSE-PAD1) activity: 0.020 U/mg
  HB101 (pSE-PAD1) Relative activity: 8.8%
[7]
  HB101 (pSE-PAD1) activity: 0.696 U/mg
  HB101 (pSE-PAD1) Relative activity: 71.2%
[2]; [13]
  Host only activity: 0.006 U/mg
[8]
  Host only activity: 0.009 U/mg

## CC(=O)CCO [4-hydroxy-2-butanone]
[7]
  HB101 (pSE-PAD1) activity: 0.011 U/mg
  HB101 (pSE-PAD1) Relative activity: 1.1%
[8]
  Host only activity: 0.006 U/mg

## C[C@@H](O)[C@@H](C)O [(2R,3R)-2,3-butanediol]
[1]; substrate 50 mM
  HB101 (pSE-PAD1) activity: 1.414 U/mg
  HB101 (pSE-PAD1) Relative activity: 620%
[2]; [13]
  Host only activity: 0 U/mg
[3]
  Vmax: 28.0 U/mg protein

## C[C@H](O)[C@H](C)O [(2S,3S)-2,3-butanediol]
[1]; substrate 50 mM
  HB101 (pSE-PAD1) activity: 0.059 U/mg
  HB101 (pSE-PAD1) Relative activity: 26.1%
[2]; [13]
  Host only activity: 0 U/mg

## C[C@@H](O)CO [(R)-1,2-propanediol]
[9]
  Relative activity: 2000%
[1]; substrate 50 mM
  HB101 (pSE-PAD1) activity: 1.077 U/mg
  HB101 (pSE-PAD1) Relative activity: 473%
[2]; [13]
  Host only activity: 0 U/mg

## C[C@@H](O)CCO [(R)-1,3-butanediol]
[1]; substrate 50 mM
  HB101 (pSE-PAD1) activity: 0.259 U/mg
  HB101 (pSE-PAD1) Relative activity: 114%
[2]; [13]
  Host only activity: 0 U/mg

## C[C@@H](O)CO [(R)-2,3-propanediol]
[9]
  Relative activity: 6100%

## OC[C@@H](O)CCl [(R)-3-chloro-1,2-propanediol]
[1]; substrate 50 mM
  HB101 (pSE-PAD1) activity: 0.002 U/mg
  HB101 (pSE-PAD1) Relative activity: 0.9%
[2]; [13]
  Host only activity: 0 U/mg

## C[C@H](O)CO [(S)-1,2-propanediol]
[9]
  Relative activity: 400%
[1]; substrate 50 mM
  HB101 (pSE-PAD1) activity: 0.246 U/mg
  HB101 (pSE-PAD1) Relative activity: 108%
[2]; [13]
  Host only activity: 0 U/mg

## C[C@H](O)CCO [(S)-1,3-butanediol]
[1]; substrate 50 mM
  HB101 (pSE-PAD1) activity: 0.042 U/mg
  HB101 (pSE-PAD1) Relative activity: 18.3%
[2]; [13]
  Host only activity: 0 U/mg

## C[C@H](O)CO [(S)-2,3-propanediol]
[9]
  Relative activity: 160%

## OC[C@H](O)CCl [(S)-3-chloro-1,2-propanediol]
[1]; substrate 50 mM
  HB101 (pSE-PAD1) activity: 0.057 U/mg
  HB101 (pSE-PAD1) Relative activity: 24.8%
[2]; [13]
  Host only activity: 0.001 U/mg

## O=C(O)c1cc(SSc2ccc([N+](=O)[O-])c(C(=O)O)c2)ccc1[N+](=O)[O-] [DTNB, 5,5′-dithiobis (2-nitrobenzoic acid)]
[6]; [12]
  Residual activity: 59%

## O=C(O)CN(CCN(CC(=O)O)CC(=O)O)CC(=O)O [EDTA, ethylenediaminetetraacetic acid]
[6]; [12]
  Residual activity: 93%
[6]
  Inhibition of the enzyme by reagent (in words): not

## OCC(O)CO [Glycerol]
[5]
  Relative activity: 100%
[9]; substrate 500 mM, activity to glycerol taken as 100
  Relative activity: 100%
[1]; substrate 100 mM
  HB101 (pSE-PAD1) activity: 0.228 U/mg
  HB101 (pSE-PAD1) Relative activity: 100%
[2]; [11]
  Host only activity: 0 U/mg

## CC(=O)CO [Hydroxyacetone]
[7]
  HB101 (pSE-PAD1) activity: 0.364 U/mg
  HB101 (pSE-PAD1) Relative activity: 37.2%
[8]
  Host only activity: 0 U/mg

## CC(O)C(C)O (stereo not drawn) [Meso-2,3-butanediol]
[1]; substrate 50 mM
  HB101 (pSE-PAD1) activity: 1.163 U/mg
  HB101 (pSE-PAD1) Relative activity: 509%
[2]; [13]
  Host only activity: 0 U/mg

## NC(=O)C1=CN([C@@H]2O[C@H](COP(=O)(O)OP(=O)(O)OC[C@H]3O[C@@H](n4cnc5c(N)ncnc54)[C@H](OP(=O)(O)O)[C@@H]3O)[C@@H](O)[C@H]2O)C=CC1 [NADPH]
[10]
  Usability as a coenzyme (in words): substantially impossible

## NC(=O)c1ccc[n+]([C@@H]2O[C@H](COP(=O)([O-])OP(=O)(O)OC[C@H]3O[C@@H](n4cnc5c(N)ncnc54)[C@H](OP(=O)(O)O)[C@@H]3O)[C@@H](O)[C@H]2O)c1 [NADP^+]
[10]
  Usability as a coenzyme (in words): substantially impossible

## O=C(O)c1cc[c]([Hg][Cl])cc1 [PCMB, p-chloromercuribenzoic acid]
[6]; reagent 0.1 mM, 30° C. for 10 minutes, glycerol dehydrogenase activity
  Residual activity: 0%
[6]
  Inhibition of the enzyme by reagent (in words): markedly inhibited

## NNc1ccccc1 [Phenylhydrazine]
[6]; [12]
  Residual activity: 110%

## [Ba+2].[Cl-].[Cl-] [barium chloride]
[6]
  Residual activity: 112%

## [Ca+2].[Cl-].[Cl-] [calcium chloride]
[6]
  Residual activity: 105%

## [Cl][Co][Cl] [cobalt chloride]
[6]; [12]
  Residual activity: 102%

## [Cl][Cu][Cl] [copper chloride]
[6]; [12]
  Residual activity: 0%
[6]
  Inhibition of the enzyme by reagent (in words): markedly inhibited

## O=C(O)CI [iodoacetic acid]
[6]
  Residual activity: 91%

## [Cl][Fe][Cl] [iron (II) chloride]
[6]; [12]
  Residual activity: 163%

## [Cl][Fe]([Cl])[Cl] [iron (III) chloride]
[6]; [12]
  Residual activity: 0%
[6]
  Inhibition of the enzyme by reagent (in words): markedly inhibited

## [Cl-].[Li+] [lithium chloride]
[6]; [12]
  Residual activity: 101%

## [Cl-].[Cl-].[Mg+2] [magnesium chloride]
[6]
  Residual activity: 105%

## [Cl][Hg][Cl] [mercury chloride]
[6]; [12]
  Residual activity: 0%
[6]
  Inhibition of the enzyme by reagent (in words): markedly inhibited

## [Cl][Ni][Cl] [nickel chloride]
[6]
  Residual activity: 99%

## c1cnc2c(c1)ccc1cccnc12 [o-phenanthroline]
[6]; [12]
  Residual activity: 0%
[6]
  Inhibition of the enzyme by reagent (in words): markedly inhibited

## [Cl-].[Cl-].[Zn+2] [zinc chloride]
[6]
  Residual activity: 113%

## (R)-1-amino-2-propanol
[1]; substrate 50 mM
  HB101 (pSE-PAD1) activity: 0.051 U/mg
  HB101 (pSE-PAD1) Relative activity: 22.2%
[2]
  Host only activity: 0.007 U/mg

## (R)-2-butanol
[1]; substrate 50 mM
  HB101 (pSE-PAD1) activity: 0.022 U/mg
  HB101 (pSE-PAD1) Relative activity: 9.6%
[2]
  Host only activity: 0 U/mg

## (S)-1-amino-2-propanol
[1]; substrate 50 mM
  HB101 (pSE-PAD1) activity: 0.018 U/mg
  HB101 (pSE-PAD1) Relative activity: 8.0%
[2]
  Host only activity: 0.007 U/mg

## (S)-2-butanol
[1]; substrate 50 mM
  HB101 (pSE-PAD1) activity: 0.024 U/mg
  HB101 (pSE-PAD1) Relative activity: 10.7%
[2]
  Host only activity: 0 U/mg

## manganese chloride
[6]
  Residual activity: 105%
